# Reference: publication PMC6315541, “Nile Tilapia Derived Antimicrobial Peptide TP4 Exerts Antineoplastic Activity Through Microtubule Disruption” (Marine Drugs, 2018)
# Tests used:
# Format in all cases: cell-based, human
# [1] = tested on: microtubule network (α-Tubulin) in A549 cells; assay: Immunocytochemistry of microtubule network and peptide uptake in A549 cells; details: for effect on microtubule network (α-Tubulin ICC): FITC-labeled mutants
# Protocol: (§1) To examine whether TP4 may affect microtubule dynamics, A549 cells were treated with TP4, and cytoskeletal elements were analyzed by immunocytochemistry (ICC). […] We then asked whether TP4 treatment may influence tubulin protein levels by performing Western blots on lysates from A549 cells that had been treated with vehicle or TP4. […] We next conducted a microtubule regrowth assay to further address whether TP4 may disrupt microtubule polymerization. TP4 was applied to A549 cells that had been treated with or without Nocodazole (20 μM) treatment for 6 h, which completely depolymerizes the microtubule network. The repolymerization of microtubules was then initialized by the addition of fresh recovery medium, and regrowth was analyzed by ICC.
# While the reduced toxicity may result from impaired binding to tubulin, it is also possible that such effects may be caused by conformational changes in the TP4 mutants, see Supplementary Figure S1C,D, which prevent intracellular penetration. To test this possibility, ICC was conducted to evaluate the cellular localization and the effects on microtubules. […] For both Gly and Ala substitution mutants, FITC-labeled TP4 mutants were able to be taken up intracellularly, see Figure 6B, panels MT-1 to MT-6. However, the microtubule network was only affected in MT-1- and MT-4-treated cells and not the other mutant-treated groups, as shown in Figure 6B.
# Figure 6 Loss of cancer-killing ability in TP4 mutants. (A) Cell viability in A549 cells was determined by the adenosine triphosphate (ATP) assay following treatment with varying doses of TP4 and TP4 mutants for 24 h. Multiple wells were analyzed for each assay. Results represent the mean ± SD. Statistical comparisons between groups were performed using two-way ANOVA: a, not significant; b, p < 0.05; d, p < 0.001. Statistical analyses are shown in Supplementary Table S1. (B) Cells were stained for TP4 (WT panel), FITC (MT-1 to MT-6 panels), α-Tubulin, and F-actin. Hoechst33342 was used for nuclei staining. Boxed regions are magnified in the furthest right panels. […] Bar: 20 μm.
# Cells were stained with TP4 (1:1000), FITC (1:500, ThermoFisher Scientific, clone 1F8-1E4), α-Tubulin (1:500), and appropriate Alexa Flour conjugated secondary antibody (1:500; ThermoFisher Scientific, Eugene, OR, USA). Hochest33342 was used for nuclear staining, and Alexa Fluor 647-conjugated phalloidin (1:200, Thermo Fisher Scientific, Eugene, OR, USA) was used to stain F-actin. For the confocal microscopic analysis, samples were mounted with fluorescent mounting medium (ProLong Gold Antifade Reagent, ThermoFisher Scientific, Eugene, OR, USA) and images were obtained with a FV3000 laser-scanning confocal microscope (Olympus), using a 60 × objective lens (Plapon 60 × OSC2, N.A. 1.4, oil) with the 4′,6-diamidino-2-phenylindole (DAPI) ([…]), green fluorescent protein (GFP) (EX 470, EM 525 for enhanced GFP (EGFP)), and Cy5 ([…]) emission filters. FV31S software (Olympus, Tokyo, Japan) was used for image acquisition.
# [2] = tested on: microtubule regrowth in A549 cells; assay: Microtubule regrowth assay after nocodazole washout; details: 10 μg mL^−1 TP4 3 h, nocodazole 20 μM 6 h, washout and recovery medium, α-Tubulin ICC, N = 3
# Protocol: as §1
# (§2) Figure 2 TP4 disrupts the microtubule network in cancer cells. (A) Cells were stained for α-Tubulin and F-actin. Hoechst33342 was used to stain nuclei. Arrows indicate cells with negative α-Tubulin staining. Bar: 20 μm. (B) Total lysates from cells with mock (labeled C) or TP4 treatment (labeled T) were analyzed by Western blot using antibodies against GAPDH and α-Tubulin. Quantification of the α-Tubulin signal normalized to GAPDH is shown. Mr is the molecular weight. […] Bar: 20 μm (D) Quantification of the number of cells with Tubulin-positive and Tubulin-negative staining. […]
# [3] = tested on: α-Tubulin protein level in A549 cells; assay: Western blot of α-Tubulin protein level in A549 cells; details: TP4 vs vehicle, Figure 2B
# Protocol: as §1, §2
sequence,measurement,setting,value
"FIHHIIGGLFSAGKAIHRLIRRRRR [TP4, synthesized Nile tilapia-derived antimicrobial peptide, Tilapia piscidin 4]",effect on microtubule network (α-Tubulin ICC; F-actin not affected),"[1]; A549 cells treated with TP4, Figure 2A",clearly affected
same,effect on microtubule network (α-Tubulin ICC),"[1]; A549 cells, TP4 6.71 μM, 3 h, Figure 6B",microtubule defects were clearly observed
same,effect on microtubule network (α-Tubulin ICC),"[1]; A549 cells, TP4 6.71 μM, 3 h, Figure 6B, listed as WT",microtubule abnormalities were observed
same,"intracellular uptake (ICC, TP4 antibody or FITC)","[1]; A549 cells, TP4 6.71 μM, 3 h, mutants FITC-labeled, Figure 6B",peptide penetration
same,cells with microtubule regrowth defects,[2],increased portion of TP4-treated cells had microtubule regrowth defects
same,level of α-Tubulin protein (normalized to GAPDH),[3],not significantly affected
